Data published in patent publication US11071731B2, “Allosteric modulators of the mu opioid receptor” (Chiromics, LLC, priority 2017, dated 2021).

Assays:
[1] = biological target: T1, mu opioid receptor (MOR) (Homo sapiens, UniProt P35372); test: PathHunter β-arrestin recruitment assay, PAM mode with EC20 endomorphin-1; type: cell-based; conditions: for EC50: read-out: β-arr. EC50
Experimental: The effects of MOR PAMs and MOR SAMs on receptor activity were assayed using the PathHunter enzyme complementation assay technology (DiscoveRx, CA). A description of the technology employed is as follows.
Beta-Arrestin Pathway: The PathHunter β-arrestin assay monitors the activation of a GPCR in a homogenous, non-imaging assay format using a technology developed by DiscoveRx called Enzyme Fragment Complementation (EFC) with beta-galactosidase (β-Gal) as the functional reporter. […] EA is fused to β-Arrestin and ED is fused to the GPCR of interest. When the GPCR is activated and β-arrestin is recruited to the receptor, ED and EA complementation occurs, restoring β-gal activity, which is measured using chemiluminescent PathHunter Detection Reagents.
In this manner an EC50 for each test compound, and percent maximal response for each test compound, were determined for both the β-arrestin and cAMP pathways. Though the pharmacological effects of a given signal bias can be hypothesized (Raehal et al. (2011) Pharmacol. Rev. 63:1001-1019), it is not possible to know with certainty which bias ratio will be most advantageous in a clinical setting. […] Kenakin 2015a, supra. The information associated with the compounds detailed herein is the first large data set available for the prediction of ligand bias for an MOR PAM.

[2] = biological target: T1, mu opioid receptor (MOR); test: Hit Hunter cAMP signaling assay (adenylyl cyclase inhibition), PAM mode with EC20 endomorphin-1; type: cell-based
[3] = maximal response for β-arrestin recruitment
[4] = cAMP EC50, adenylyl cyclase inhibition
[5] = maximal response for adenylyl cyclase inhibition
[6] = adenylyl cyclase inhibition, read-out: cAMP EC50

T1 sequence (P35372 whole entry): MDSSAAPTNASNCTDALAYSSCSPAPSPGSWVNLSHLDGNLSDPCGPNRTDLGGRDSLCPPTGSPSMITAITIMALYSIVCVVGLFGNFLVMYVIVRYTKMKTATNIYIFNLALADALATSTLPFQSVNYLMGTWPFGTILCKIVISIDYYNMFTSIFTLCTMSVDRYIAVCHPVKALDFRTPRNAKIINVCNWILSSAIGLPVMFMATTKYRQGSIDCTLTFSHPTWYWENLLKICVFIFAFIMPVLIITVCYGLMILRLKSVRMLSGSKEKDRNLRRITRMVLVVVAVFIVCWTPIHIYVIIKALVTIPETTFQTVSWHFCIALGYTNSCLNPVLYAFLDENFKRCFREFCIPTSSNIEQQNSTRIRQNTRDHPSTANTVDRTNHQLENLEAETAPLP

Structure (SMILES) | β-arr Max. Resp. [1, 3] | EC50 ([1]; β-arrestin recruitment) | EC50 [2, 4] | cAMP Max. Resp. [2, 5] | EC50 [2, 6] | β-arr Max. Resp. ([1]; maximal response, β-arrestin recruitment) | cAMP Max. Resp. ([2]; maximal response, adenylyl cyclase inhibition)
Fc1cncc(C2CCCCN2c2nc(Cl)ncc2F)c1 (centres unmarked) [compound 370] | D (D represents a maximal response of < 40%) | < 700 nM | < 700 nM | D (D represents a maximal response of < 40%) | – | – | –
N#Cc1cccc(N2CCCCC2c2ccc(F)c(Cl)c2)c1 (centres unmarked) [compound 218] | E (E represents a maximal response of 40-60%) | 700 to 2100 nM | – | D (D represents a maximal response of < 40%) | > 2100 nM | – | –
Fc1cnc(Cl)nc1N1CCCCC1c1cccnc1F (centres unmarked) [compound 335] | D (D represents a maximal response of < 40%) | < 700 nM | < 700 nM | D (D represents a maximal response of < 40%) | – | – | –
CS(=O)(=O)N1CCN(c2nc(Cl)ncc2F)C(c2cc(F)cc(C(F)(F)F)c2)C1 (racemic) [Compound 309] | E (E represents a maximal response of 40-60%) | > 2100 nM | – | D (D represents a maximal response of < 40%) | > 2100 nM | – | –
O=S(=O)(c1ccc(Cl)cc1)N1C2CCC(C2)C1c1ccc(F)c(Br)c1 (centres unmarked) [Compound 178] | F (F represents a maximal response of > 60%) | < 700 nM | – | D (D represents a maximal response of < 40%) | 700 to 2100 nM | – | –
COc1ccc(C2COCCN2c2nc(Cl)ncc2F)cc1Br (racemic) [Compound 187] | F (F represents a maximal response of > 60%) | > 2100 nM | – | E (E represents a maximal response of 40-60%) | > 2100 nM | – | –
Fc1cnc(Cl)nc1N1CCOCC1c1cccc(C(F)(F)F)n1 (racemic) [Compound 186] | E (E represents a maximal response of 40-60%) | > 2100 nM | – | D (D represents a maximal response of < 40%) | > 2100 nM | – | –
Fc1cccc(CN2CCCCC2c2cccc(C(F)(F)F)n2)c1 (centres unmarked) [compound 152] | F (F represents a maximal response of > 60%) | > 2100 nM | 700 to 2100 nM | E (E represents a maximal response of 40-60%) | – | – | –
CCCC1CCCN(c2nc(Cl)ncc2F)C1c1cccc(C(F)(F)F)c1 (centres unmarked) [compound 247] | F (F represents a maximal response of > 60%) | > 2100 nM | – | E (E represents a maximal response of 40-60%) | > 2100 nM | – | –
Fc1cnc(Cl)nc1N1CCCCC1c1cccc2ccncc12 (centres unmarked) [compound 286] | D (D represents a maximal response of < 40%) | > 2100 nM | > 2100 nM | D (D represents a maximal response of < 40%) | – | – | –
COc1ccc(C2CCCCN2c2nc(Cl)ncc2C)cc1Br (centres unmarked) [compound 234] | F (F represents a maximal response of > 60%) | > 2100 nM | > 2100 nM | F (F represents a maximal response of > 60%) | – | – | –
Fc1ccc(CN2CCCCC2c2cccc(C(F)(F)F)n2)cc1Cl (centres unmarked) [compound 161] | F (F represents a maximal response of > 60%) | 700 to 2100 nM | 700 to 2100 nM | E (E represents a maximal response of 40-60%) | – | – | –
O[C@H]1CC[C@H](c2cc(F)cc(C(F)(F)F)c2)N(c2nc(Cl)ncc2F)C1 (relative stereo) [compound 310] | F (F represents a maximal response of > 60%) | > 2100 nM | – | F (F represents a maximal response of > 60%) | 700 to 2100 nM | – | –
CCC1CCCN(c2nc(Cl)ncc2F)C1c1ccc(OC)c(Br)c1 (centres unmarked) [compound 251] | F (F represents a maximal response of > 60%) | > 2100 nM | – | D (D represents a maximal response of < 40%) | > 2100 nM | – | –
Fc1ccc(C2CCCCN2Cc2cc(Cl)ccc2F)cc1Cl (centres unmarked) [compound 160] | F (F represents a maximal response of > 60%) | 700 to 2100 nM | 700 to 2100 nM | F (F represents a maximal response of > 60%) | – | – | –
Fc1cnc(Cl)nc1N1CCCCC1c1ccccc1 (centres unmarked) [compound 362] | D (D represents a maximal response of < 40%) | < 700 nM | < 700 nM | D (D represents a maximal response of < 40%) | – | – | –
Cc1cc(C)cc(N2CCCCC2c2ccc(F)c(Cl)c2)c1 (centres unmarked) [compound 471] | – | > 2100 nM | > 2100 nM | – | – | F (F represents a maximal response of > 60%) | D (D represents a maximal response of < 40%)
